13 molecules from ChEMBL document CHEMBL1131893, “Antitumor agents 201. Cytotoxicity of harmine and beta-carboline analogs” (1999) can be followed below.

In brackets after ≈: the same amount, converted by molar mass. Activity calls are given as the source filed them. No cut-off for these calls is given here.

In one test the test system is A549. In words: In vitro cytotoxic activity was determined against lung carcinoma (A549) cell line. It counts as functional. As to conditions: Homo sapiens, read-out: ED50 (the source's name).
The test system of another test is MCF7. In words: In vitro cytotoxic activity against MCF-7 (human breast cancer) cell line. The test is classed as functional. The settings on record: read-out: ED50 (the source's name).
A further test relates to SAOS-2. Put plainly: In vitro cytotoxic activity was determined against osteosarcoma (SaOS-2) cell line. The test is classed as functional. The settings on record: Homo sapiens, read-out: ED50 (the source's name).
A further test concerns U-87 MG. Put plainly: In vitro cytotoxic activity against U-87-MG (glioblastoma) cell line. The settings on record: Homo sapiens, read-out: ED50 (the source's name). The test is classed as functional, U-87MG ATCC.
A further test deals with 1A9. In words: In vitro cytotoxic activity was determined against ovarian cancer (1A9) cell line. The test is classed as functional. The settings on record: Homo sapiens, read-out: ED50 (the source's name).
The test system of the next test is CAKI-1. In words: In vitro cytotoxic activity was determined against renal cancer (CAKI-1) cell line. The test is classed as functional. The settings on record: Homo sapiens, read-out: ED50 (the source's name).
The test system of test [1] is KB. In words: In vitro cytotoxic activity was determined against epidermoid carcinoma of the nasopharynx (KB) cell line. The test is classed as functional. The settings on record: Homo sapiens, read-out: ED50 (the source's name).
Test [2] has as its system SK-MEL-2. In words: In vitro cytotoxic activity was determined against melanoma cancer (SK-MEL-2) cell line. It counts as functional. The settings on record: Homo sapiens, read-out: ED50 (the source's name).
The test system of test [3] is HCT-8. Put plainly: In vitro cytotoxic activity was determined against ileocecal carcinoma (HCT-8) cell line. The test is classed as functional. The settings on record: Homo sapiens, read-out: ED50 (the source's name).
The subject of another test is HOS. In words: In vitro cytotoxic activity was determined against osteosarcoma ( HOS) cell line. The test is classed as functional. The settings on record: Homo sapiens, read-out: ED50 (the source's name).
In test [4] the test system is HCT-8. Put plainly: In vitro cytotoxic activity was determined against ileocecal carcinoma (HCT-8) cell line; Not active. The test is classed as functional, cell-based. The settings on record: Homo sapiens.
The subject of test [5] is SK-MEL-2. Put plainly: In vitro cytotoxic activity was determined against melanoma cancer (SK-MEL-2) cell line; Not active. It counts as functional, cell-based. The settings on record: Homo sapiens.
In another test the test system is HEL. In words: In vitro cytotoxic activity was determined against embryonic lung fibroblast (HEL) cell line. It counts as functional. The settings on record: Homo sapiens, read-out: ED50 (the source's name).
The test system of test [6] is KB. Put plainly: In vitro cytotoxic activity was determined against drug resistant tumor cell line KB-VIN (expressing P-glycoprotein). The test is classed as functional. As to conditions: Homo sapiens, read-out: ED50 (the source's name).
Test [7] relates to KB. Put plainly: In vitro cytotoxic activity was determined against drug resistant tumor cell line KB-CPT (pleotrophic mechanism including level of topoisomerase I). The settings on record: Homo sapiens, read-out: ED50 (the source's name). The test is classed as functional.
Test [8] relates to KB. In words: In vitro cytotoxic activity was determined against drug resistant tumor cell line KB-7d (pleotrophic resistance including MRP multidrug resistant protein). The test is classed as functional. As to conditions: Homo sapiens, read-out: ED50 (the source's name).

For the molecule `COc1ccc2c(c1)[nH]c1c(C)[n+](C)ccc12.[I-]`, the EC50 in the test with A549 was determined as 0.9 µg/mL; in the test on MCF7, 6.2 µg/mL; in the test with SAOS-2, 8.2 µg/mL; in the test on U-87 MG, 6.2 µg/mL; in the test on 1A9 it was 7 µg/mL; in the test on CAKI-1, 8.9 µg/mL. In addition, the EC50 in the test with KB [1] is 7.2 µg/mL; in the test on SK-MEL-2 [2], 8.4 µg/mL.
For the molecule `CCCCCCOc1ccc2c(c1)[nH]c1c(C)nccc12`, the EC50 in the test with A549 came to 4.4 µg/mL (≈ 15.6 µM); in the test with MCF7 it was 3.1 µg/mL (≈ 11 µM); in the test with U-87 MG, 4.2 µg/mL (≈ 14.9 µM); with HCT-8 [3], 3.8 µg/mL (≈ 13.5 µM); in the test on 1A9 it was 1.9 µg/mL (≈ 6.73 µM); with CAKI-1, 2.2 µg/mL (≈ 7.79 µM). The values for the EC50 in the test with HOS, in the test on KB [1] and in the test on SK-MEL-2 [2] were 2.5 µg/mL (≈ 8.85 µM), 2.4 µg/mL (≈ 8.5 µM) and more than 5 µg/mL, respectively.
Regarding `Br.COc1cc2[nH]c3c(C)nccc3c2cc1Br`, the EC50 in the test with A549 came out at 3.9 µg/mL; in the test on MCF7, 5.6 µg/mL; in the test on SAOS-2, 6.8 µg/mL; with U-87 MG, 6.7 µg/mL; with 1A9, 1.9 µg/mL; with CAKI-1 it was 7.3 µg/mL. For the same molecule, the EC50 in the test with KB [1] worked out at 3.5 µg/mL; with SK-MEL-2 [2] it was 5 µg/mL.
On to `Cc1nccc2c1[nH]c1cc(OC(C)C)ccc12`, for which the ED50 entry with HCT-8 [4] and in the test on SK-MEL-2 [5] was “inactive” each time. The EC50 in the test on A549 amounted to 17 µg/mL (≈ 70.7 µM); with MCF7, 11.9 µg/mL (≈ 49.5 µM); with U-87 MG, 16.4 µg/mL (≈ 68.2 µM); with 1A9, 7.9 µg/mL (≈ 32.9 µM); in the test with CAKI-1, 12.3 µg/mL (≈ 51.2 µM); in the test on HOS it was 10.2 µg/mL (≈ 42.4 µM). In addition, the EC50 in the test with KB [1] is 12.8 µg/mL (≈ 53.3 µM).
Turning to `CCOc1ccc2c(c1)[nH]c1c(C)nccc12`, the EC50 in the test on A549 worked out at 5 µg/mL (≈ 22.1 µM); with MCF7, 5 µg/mL (≈ 22.1 µM); in the test with SAOS-2 it was 20 µg/mL (≈ 88.4 µM); in the test with 1A9, 8 µg/mL (≈ 35.4 µM); with CAKI-1, 9 µg/mL (≈ 39.8 µM); in the test with KB [1], 10.2 µg/mL (≈ 45.1 µM). In addition, the EC50 in the test on SK-MEL-2 [2] came out at 9.5 µg/mL (≈ 42 µM).
On to `COc1cc2[nH]c3c(C)nccc3c2cc1Br`, for which the EC50 in the test on A549 amounted to 13.6 µg/mL (≈ 46.7 µM); in the test with MCF7 it was 14.6 µg/mL (≈ 50.1 µM); with U-87 MG, 14 µg/mL (≈ 48.1 µM); in the test with HCT-8 [3] it was 16 µg/mL (≈ 55 µM); with 1A9, 2.3 µg/mL (≈ 7.9 µM); with CAKI-1 it was 6.7 µg/mL (≈ 23 µM). Also, the values for the EC50 in the test with HOS, in the test with KB [1] and in the test with SK-MEL-2 [2] were 6.5 µg/mL (≈ 22.3 µM), 7.9 µg/mL (≈ 27.1 µM) and more than 20 µg/mL, respectively.
For the molecule `CCn1c2cc(OC)ccc2c2ccnc(C)c21`, the EC50 was 4.2 µg/mL (≈ 17.5 µM) with A549; 5.3 µg/mL (≈ 22.1 µM) in the test on MCF7; 7.4 µg/mL (≈ 30.8 µM) in the test with U-87 MG; more than 20 µg/mL with HCT-8 [3]; 1.8 µg/mL (≈ 7.49 µM) with 1A9; 7.4 µg/mL (≈ 30.8 µM) in the test on CAKI-1. Further, the EC50 in the test on KB [1] was 1.8 µg/mL (≈ 7.49 µM).
As to `COc1ccc2c3ccnc(C)c3n(C)c2c1`, the EC50 was 4.2 µg/mL (≈ 18.6 µM) in the test on A549; 4.3 µg/mL (≈ 19 µM) with MCF7; 7.8 µg/mL (≈ 34.5 µM) with U-87 MG; more than 20 µg/mL in the test with HCT-8 [3]; 1.8 µg/mL (≈ 7.95 µM) in the test on 1A9; 5 µg/mL (≈ 22.1 µM) in the test with CAKI-1. Also, the EC50 with KB [1] is 2.2 µg/mL (≈ 9.72 µM).
In the case of `CCC[n+]1ccc2c([nH]c3cc(OC)ccc32)c1C.[I-]`, the EC50 in the test with A549 turned out to be 15 µg/mL; with 1A9, 2 µg/mL; with CAKI-1, 15 µg/mL; in the test with KB [1], 5 µg/mL; in the test with HEL it was 9.5 µg/mL.
Take `CC(=O)Oc1ccc2c(c1)[nH]c1c(C)nccc12`: the EC50 in the test with A549 was 4.3 µg/mL (≈ 17.9 µM); with MCF7 it was 7.5 µg/mL (≈ 31.2 µM); with SAOS-2, more than 20 µg/mL; with 1A9, 4.5 µg/mL (≈ 18.7 µM); in the test with CAKI-1, 10.2 µg/mL (≈ 42.5 µM); in the test with KB [1] it was 19.5 µg/mL (≈ 81.2 µM). The EC50 in the test with SK-MEL-2 [2] worked out at 5 µg/mL (≈ 20.8 µM).
For `CCC(CC)C1NC(C(=O)O)Cc2c1[nH]c1cc(OC)ccc21` (stereo not given), the EC50 with A549 was more than 20 µg/mL; in the test with 1A9, more than 20 µg/mL; in the test on CAKI-1 it was more than 20 µg/mL; with KB [1], 20 µg/mL (≈ 63.2 µM); in the test on HEL, more than 20 µg/mL.
Take `CCCn1c2cc(OC)ccc2c2cc[n+](C)c(C)c21.[I-]`: the EC50 in the test on A549 is 4 µg/mL; in the test on MCF7 it was more than 20 µg/mL; in the test on KB [6], more than 40 µg/mL; in the test with KB [7], 3 µg/mL; in the test on U-87 MG, more than 20 µg/mL; in the test with 1A9, less than 1.3 µg/mL. The EC50 was determined as 9.2 µg/mL in the test on CAKI-1; 1.8 µg/mL with KB [1]; 15 µg/mL in the test with HEL; 18 µg/mL with SK-MEL-2 [2]; 35.5 µg/mL in the test with KB [8].
Take `COc1ccc2c3c([nH]c2c1)C(C)N(N=O)CC3` (stereo not given): the EC50 in the test on A549, in the test on MCF7, with SAOS-2, with U-87 MG, with 1A9 and in the test with CAKI-1 was more than 10 µg/mL throughout. Further, the EC50 in the test with KB [1] is 4.7 µg/mL (≈ 19.2 µM); in the test on SK-MEL-2 [2], more than 10 µg/mL.
